From US12208106B2, “Methods of vitamin D treatment” (priority 2016, dated 2025)

Assays:
[1] = Solubility of calcifediol monohydrate; type: physicochemical
From the text: In one embodiment, calcifediol is synthetically manufactured as calcifediol monohydrate. […] Chemically, calcifediol monohydrate is (3β,5Z,7E)-9,10-secocholesta-5,7,10(19)-triene-3,25-diol monohydrate and its structural formula is: […]

[2] = system: plasma proteins; test: Plasma protein binding of calcifediol; type: in vitro ADME; settings: human, read-out: bound to plasma proteins
Experimental: The pharmacokinetics of […] were assessed in healthy subjects and subjects with CKD Stage 3 or Stage 4. […] Steady-state levels of serum total 25-hydroxyvitamin D were reached after approximately 3 months. Following multiple dose administration of […], the average steady state concentrations of serum total 25-hydroxyvitamin D were 53 ng/mL and 68 ng/mL for doses of 30 mcg and 60 mcg dose group, respectively. With respect to distribution, calcifediol is extensively bound to plasma proteins (>98%). The mean apparent volume of distribution was 8.8 L in healthy subjects following a single oral dose of […], and 30.1 L in subjects with Stage 3 or Stage 4 chronic kidney disease following repeated dosing. With respect to elimination, the mean elimination half-life of calcifediol was approximately 11 days in healthy individuals following a single dose of […], and approximately 25 days in patients with Stage 3 or Stage 4 chronic kidney disease following repeated once daily dosing. With respect to metabolism, production of calcitriol from calcifediol is catalyzed by the 1α-hydroxylase enzyme, CYP27B1, located in the kidney, parathyroid gland, and other tissues. […] Calcitriol suppresses CYP27B1 and upregulates CYP24A1. Excretion of calcifediol occurs primarily through the biliary fecal route. […]

solubility in alcohol and fatty oils [1] | solubility in water [1] | fraction unbound [2] | Compound
soluble | practically insoluble | – | C=C1CC[C@H](O)C/C1=C/C=C1\CCC[C@]2(C)[C@@H]([C@H](C)CCCC(C)(C)O)CC[C@@H]12 [Calcifediol monohydrate, (3β,5Z,7E)-9,10-secocholesta-5,7,10(19)-triene-3,25-diol monohydrate]
– | – | < 0.02 | C=C1CC[C@H](O)C/C1=C/C=C1\CCC[C@]2(C)[C@@H]([C@H](C)CCCC(C)(C)O)CC[C@@H]12 [calcifediol, 25-hydroxyvitamin D3]
